The values below come from US20260055118A1, “VISIBLE LIGHT SENSITIVE PHOTOREMOVABLE PROTECTING GROUPS, PREPARATION PROCESS THEREOF, PHOTOACTIVATABLE CONJUGATES COMPRISING THEM AND USES THEREOF” (HUN-REN TERMÉSZETTUDOMÁNYI KUTATÓKÖZPONT, priority 2022, published 2026).

The subject of data set [1] is SK-OV-3 cells. The data set is described as follows: Live cell confocal fluorescence imaging (cell permeability, colocalization). The format is cell-based, human. The settings on record: live SK-OV-3 cells, confocal microscopy. The protocol:
SKOV3 (ATCC HTB-77) cells were maintained in McCoy's 5A (Modified) Medium, HEPES (Gibco 22330021) media supplemented with 10% FBS (Gibco 10500-064), 1% penicillin-streptomycin (Gibco 15140-122). The cells were cultured at 37° C. in a 5% CO2 atmosphere and passaged—using trypsin (Gibco 25300-054)—every 3-4 days up to 20 passages.
SKOV3 ([…]) cells were transferred into μ-Slide 8 well plates (Ibidi 80827) and were incubated for 40 h at 37° C. in a 5% CO2 atmosphere. After 30 min treatment with compounds X1′-SN38 and X2′—SN38 in the concentration of 1 μM and in some cases in combination with 1 nM MitoTracker Deep Red FM (Invitrogen M22426) or 1 nM LysoTracker Deep red (Invitrogen L12492) or 50 nM MitoTracker Red FM (Invitrogen M22425) or 50 nM LysoTracker red DND-99 (Invitrogen L7528). The samples were subjected to microscopy analyses. […]
Due to their high fluorescence, the cell permeability of compounds X1′-SN38 and X2′-SN38 were tested in live SK—OV-3 (human ovarian carcinoma) cells using confocal microscopy. […] The decrease of fluorescence (related to the photolysis reaction) was only observed in the irradiated area. Overall, these experiments serve as evidence for the cell permeability, biocompatibility and excellent ability of this invention to determine the localization of the photoactivatable conjugates via fluorescence microscopy.

The subject of data set [2] is SK-OV-3 cells. The data set is described as follows: Cytotoxicity determination, MTT assay, with light irradiation and in the dark. The format is cell-based, human. How it is done: A viability test was carried out to assess the toxicity of SN38 as well as the photoremovable protecting group-SN38 conjugates X1′-SN38 and X2′-SN38 after light irradiation and in the dark on SKOV3 cells. Cells were transferred into a 48-well plate (Thermo Fisher Scientific, 130187) (4,500 cells/well) and incubated for 20-24 h at 37° C. in a 5% CO2 atmosphere in McCoy's 5A (Modified) Medium, HEPES (Gibco 22330021) supplemented with 10% FBS (Gibco 10500-064), 1% penicillin-streptomycin (Gibco 15140-122). Cells were treated with compounds in the concentration range of 10^−11-10^−4 M for 90 min followed by light irradiation or kept in the dark at 37° C. in 5% CO2 atmosphere. After treatment and irradiation, cells were kept at 37° C. in 5% CO2 atmosphere for 72 hours. After the incubation period, supernatants were replaced with 0.5 mg/ml MTT (3-(4,5-dimethylthiazol-2-yl)-2,5-diphenyltetrazolium bromide; Sigma M5655-1G) solution (in complete DMEM: Dulbecco's modified Eagle's medium (DMEM, Gibco 41965-039), supplemented with 10% FBS (Gibco 10500-064), 1% penicillin-streptomycin (Gibco 15140-122), 1% Glutamax (Gibco 35050-061) and 1% sodium pyruvate (Life Technologies, Gibco 11360-070)) and incubated for 120 min at 37° C. in the dark. The insoluble formazan crystals were dissolved in 250 μl DMSO. Absorbance was detected at 540 nm using a Biotek Synergy 2 Cytation 3 imaging plate reader with Gen5 software version 3.08 (Biotek Winooski, VT, USA). Viability was expressed as percentage (n=3) of the readings of untreated control cells.
To determine phototoxic properties of compounds X1′-SN38 and X2′-SN38, standard MTT assays were performed on SK—OV-3 cells. To irradiate multiple specimens, an LED panel was custom-made for a 48-well plate consisting of 24 LEDs using green (4 W input power, λmax=549 nm half-width: 16 nm, output power: 72 mW), orange (4 W input power, λmax=605 nm half-width: 10 nm, output power: 140 mW) and red (4 W input power, λmax=658 nm half-width: 10 nm, for Q=CMe2 output power: 210 mW) LED irradiation. The board was specifically designed for the plates and offer water cooling to minimize heat shock to cells. Every second well can be irradiated with an individual LED. First, the cytotoxicity of the free active agent, SN38 was determined to be EC50 ^˜6 nM. Treatment of cells with the photoactivatable SN38 derivatives for 72 hours in the absence of light (without washing) produced moderate cytotoxic effects, sigificantly lowering the effectiveness of the active agent. This confirms that SN38 is a suitable candidate for light-activated prodrug applications. […] Reducing the irradiation time down to 10 s still produced significant phototoxicity in higher concentrations (see FIG. 8a for compound X2′-SN38) even assuming incomplete uncaging as a result of the substantial dark stability of compound X2′-SN38.
On the technique in general: Tetrazolium dyes change colour on reduction, which living cells bring about.

Each structure is given as a SMILES string. Where two headings read alike, the source gives them in different places.

What is called EC50 is the concentration giving half of the maximal effect. Consider `CCc1c2c(nc3ccc(OC(=O)N(C)CCN(C)C(=O)OC(C)c4c5ccc(=[N+]6CCCC6)cc-5oc5cc(N6CCCC6)ccc45)cc13)-c1cc3c(c(=O)n1C2)COC(=O)C3(O)CC.[I-]` (mixture of isomers) [X1′-SN38], for which, in data set [1], the cell permeability entry was “cell permeable”. The EC50 in data set [2] (dark, (green) series, read-out: Dark EC50 values) stood at 4 µM; in data set [2] (dark, (orange) series, read-out: Dark EC50 values), 1.1 µM; in data set [2] (green light irradiation, 15 min, read-out: EC50 values after irradiation), 0.063 µM; in data set [2] (orange light, 5 min, read-out: EC50 values after irradiation), 0.023 µM. The Photoindex turned out to be 64 in data set [2] (green light, 15 min) and 45 in data set [2] (orange light, 5 min).
